Measured values reported in PubChem BioAssay (NCI).
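Assay format: 96-well plates, 48-hour exposure. TGI marks complete inhibition of growth.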

Experiments:
Assay in all cases: NCI-60 cell line screen, 48 h
HCT-15 colon = test system: HCT-15 colon
SF-268 CNS = test system: SF-268 CNS
EKVX NSCLC = test system: EKVX NSCLC
RXF 393 renal = test system: RXF 393 renal
UO-31 renal = test system: UO-31 renal
SW-620 colon = test system: SW-620 colon
HOP-92 NSCLC = test system: HOP-92 NSCLC
HS 578T breast = test system: HS 578T breast
T-47D breast = test system: T-47D breast
U251 CNS = test system: U251 CNS
KM12 colon = test system: KM12 colon
SNB-75 CNS = test system: SNB-75 CNS
A549 NSCLC = test system: A549 NSCLC
MDA-N = test system: MDA-N
NCI-H460 lung = test system: NCI-H460 lung
K-562 leukemia = test system: K-562 leukemia
MDA-MB-231 breast = test system: MDA-MB-231 breast
NCI-H226 lung = test system: NCI-H226 lung
OVCAR-3 ovarian = test system: OVCAR-3 ovarian
COLO 205 colon = test system: COLO 205 colon
TK-10 renal = test system: TK-10 renal
HT29 colon = test system: HT29 colon
IGROV1 ovarian = test system: IGROV1 ovarian
SF-539 CNS = test system: SF-539 CNS
DU-145 prostate = test system: DU-145 prostate
CCRF-CEM leukemia = test system: CCRF-CEM leukemia
HCT-116 colon = test system: HCT-116 colon
RPMI-8226 leukemia = test system: RPMI-8226 leukemia
BT-549 breast = test system: BT-549 breast
SF-295 CNS = test system: SF-295 CNS
HOP-62 NSCLC = test system: HOP-62 NSCLC
PC-3 prostate = test system: PC-3 prostate
HCC-2998 colon = test system: HCC-2998 colon
NCI/ADR-RES ovarian = test system: NCI/ADR-RES ovarian
CAKI-1 renal = test system: CAKI-1 renal
UACC-62 melanoma = test system: UACC-62 melanoma
MDA-MB-435 = test system: MDA-MB-435
NCI-H522 lung = test system: NCI-H522 lung
NCI-H23 lung = test system: NCI-H23 lung
SN12C renal = test system: SN12C renal
HL-60(TB) leukemia = test system: HL-60(TB) leukemia
OVCAR-8 ovarian = test system: OVCAR-8 ovarian
M14 melanoma = test system: M14 melanoma
SK-MEL-5 melanoma = test system: SK-MEL-5 melanoma
A498 renal = test system: A498 renal
SK-MEL-28 melanoma = test system: SK-MEL-28 melanoma
MCF7 breast = test system: MCF7 breast
SK-MEL-2 melanoma = test system: SK-MEL-2 melanoma
LOX IMVI melanoma = test system: LOX IMVI melanoma
SK-OV-3 ovarian = test system: SK-OV-3 ovarian
MOLT-4 leukemia = test system: MOLT-4 leukemia
OVCAR-5 ovarian = test system: OVCAR-5 ovarian
786-0 renal = test system: 786-0 renal
UACC-257 melanoma = test system: UACC-257 melanoma
ACHN renal = test system: ACHN renal
MALME-3M melanoma = test system: MALME-3M melanoma
OVCAR-4 ovarian = test system: OVCAR-4 ovarian
SNB-19 CNS = test system: SNB-19 CNS
SR leukemia = test system: SR leukemia

SMILES: c1ccc(C[N+]23CN4CN(CN(C4)C2)C3)cc1
- TGI (HCT-15 colon): > 100 µM
- TGI (SF-268 CNS): 85.8 µM
- TGI (EKVX NSCLC): > 100 µM
- TGI (RXF 393 renal): 36.8 µM
- TGI (UO-31 renal): 43.7 µM
- TGI (SW-620 colon): 69.5 µM
- TGI (HOP-92 NSCLC): 70.2 µM
- TGI (HS 578T breast): > 100 µM
- TGI (T-47D breast): 87.4 µM
- TGI (U251 CNS): 35.6 µM
- TGI (KM12 colon): > 100 µM
- TGI (SNB-75 CNS): > 100 µM
- TGI (A549 NSCLC): 91.8 µM
- TGI (MDA-N): > 100 µM
- TGI (NCI-H460 lung): > 100 µM
- TGI (K-562 leukemia): 86.2 µM
- TGI (MDA-MB-231 breast): 49.8 µM
- TGI (NCI-H226 lung): > 100 µM
- TGI (OVCAR-3 ovarian): > 100 µM
- TGI (COLO 205 colon): 35.8 µM
- TGI (TK-10 renal): > 100 µM
- TGI (HT29 colon): > 100 µM
- TGI (IGROV1 ovarian): > 100 µM
- TGI (SF-539 CNS): 51.9 µM
- TGI (DU-145 prostate): 91.8 µM
- TGI (CCRF-CEM leukemia): 32.9 µM
- TGI (HCT-116 colon): 85.3 µM
- TGI (RPMI-8226 leukemia): 57.2 µM
- TGI (BT-549 breast): > 100 µM
- TGI (SF-295 CNS): > 100 µM
- TGI (HOP-62 NSCLC): > 100 µM
- TGI (PC-3 prostate): 35.7 µM
- TGI (HCC-2998 colon): 39.9 µM
- TGI (NCI/ADR-RES ovarian): > 100 µM
- TGI (CAKI-1 renal): > 100 µM
- TGI (UACC-62 melanoma): 32.1 µM
- TGI (MDA-MB-435): 45.5 µM
- TGI (NCI-H522 lung): > 100 µM
- TGI (NCI-H23 lung): 36.6 µM
- TGI (SN12C renal): > 100 µM
- TGI (HL-60(TB) leukemia): 57.2 µM
- TGI (OVCAR-8 ovarian): 81.8 µM
- TGI (M14 melanoma): 39.8 µM
- TGI (SK-MEL-5 melanoma): 50 µM
- TGI (A498 renal): > 100 µM
- TGI (SK-MEL-28 melanoma): 60.9 µM
- TGI (MCF7 breast): 94.3 µM
- TGI (SK-MEL-2 melanoma): 34.6 µM
- TGI (LOX IMVI melanoma): 48.2 µM
- TGI (SK-OV-3 ovarian): > 100 µM
- TGI (MOLT-4 leukemia): 43.9 µM
- TGI (OVCAR-5 ovarian): > 100 µM
- TGI (786-0 renal): 46.8 µM
- TGI (UACC-257 melanoma): > 100 µM
- TGI (ACHN renal): 87.9 µM
- TGI (MALME-3M melanoma): > 100 µM
- TGI (OVCAR-4 ovarian): > 100 µM
- TGI (SNB-19 CNS): 71.2 µM

SMILES: C=CCNS(=O)(=O)c1ncnc2nc[nH]c12
- TGI (HCT-15 colon): > 100 µM
- TGI (SR leukemia): > 100 µM
- TGI (EKVX NSCLC): > 100 µM
- TGI (RXF 393 renal): > 100 µM
- TGI (UO-31 renal): > 100 µM
- TGI (SW-620 colon): > 100 µM
- TGI (HOP-92 NSCLC): > 100 µM
- TGI (HS 578T breast): > 100 µM
- TGI (T-47D breast): > 100 µM
- TGI (U251 CNS): > 100 µM
- TGI (KM12 colon): > 100 µM
- TGI (SNB-75 CNS): > 100 µM
- TGI (A549 NSCLC): > 100 µM
- TGI (MDA-N): > 100 µM
- TGI (K-562 leukemia): > 100 µM
- TGI (MDA-MB-231 breast): > 100 µM
- TGI (NCI-H226 lung): > 100 µM
- TGI (OVCAR-3 ovarian): > 100 µM
- TGI (COLO 205 colon): > 100 µM
- TGI (TK-10 renal): > 100 µM
- TGI (HT29 colon): > 100 µM
- TGI (IGROV1 ovarian): > 100 µM
- TGI (DU-145 prostate): > 100 µM
- TGI (CCRF-CEM leukemia): > 100 µM
- TGI (HCT-116 colon): > 100 µM
- TGI (RPMI-8226 leukemia): > 100 µM
- TGI (BT-549 breast): > 100 µM
- TGI (SF-295 CNS): > 100 µM
- TGI (HOP-62 NSCLC): > 100 µM
- TGI (PC-3 prostate): > 100 µM
- TGI (NCI/ADR-RES ovarian): > 100 µM
- TGI (CAKI-1 renal): > 100 µM
- TGI (UACC-62 melanoma): > 100 µM
- TGI (MDA-MB-435): > 100 µM
- TGI (NCI-H522 lung): > 100 µM
- TGI (NCI-H23 lung): > 100 µM
- TGI (SN12C renal): > 100 µM
- TGI (OVCAR-8 ovarian): > 100 µM
- TGI (M14 melanoma): > 100 µM
- TGI (SK-MEL-5 melanoma): > 100 µM
- TGI (A498 renal): > 100 µM
- TGI (SK-MEL-28 melanoma): > 100 µM
- TGI (MCF7 breast): > 100 µM
- TGI (SK-MEL-2 melanoma): > 100 µM
- TGI (LOX IMVI melanoma): > 100 µM
- TGI (SK-OV-3 ovarian): > 100 µM
- TGI (MOLT-4 leukemia): 41.2 µM
- TGI (OVCAR-5 ovarian): > 100 µM
- TGI (786-0 renal): > 100 µM
- TGI (UACC-257 melanoma): > 100 µM
- TGI (ACHN renal): > 100 µM
- TGI (MALME-3M melanoma): > 100 µM
- TGI (OVCAR-4 ovarian): > 100 µM
- TGI (SNB-19 CNS): > 100 µM
